Test [1] deals with Mcl-1 protein (UniProtKB primary accession number: Q07820) (Homo sapiens, UniProt Q07820). The test can be described thus: Inhibition of Mcl-1 by fluorescence polarisation, Method 1. The settings on record: fluorescence polarisation test; Method 2 values are underlined in the patent (underlining not visible here); read-out: IC50 (M) Mcl-1 FP. Type of test: binding. The gist of the method:
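An 11-point DMSO dilution of compound is mixed with buffer (10 mM HEPES, 150 mM NaCl, 0.05% Tween 20, pH 7.4) carrying 1 nM fluorescein-labelled ligand and 5 nM Mcl-1, final concentrations. Displacement is monitored by fluorescence polarisation.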

Test [2] deals with H929 multiple myeloma tumour line. The test can be described thus: In vitro cytotoxicity, Microculture Tetrazolium Assay. Type of test: cell-based. The settings on record: Homo sapiens, NCI-H929, 48 h, H929 cells, 48 hours exposure, MTT; read-out: IC50 (μM) MTT H929. As to the method: The cytotoxicity studies were carried out on the H929 multiple myeloma tumour line.
The cells are distributed onto microplates and exposed to the test compounds for 48 hours.

Sequence of Mcl-1 protein (Q07820 whole entry): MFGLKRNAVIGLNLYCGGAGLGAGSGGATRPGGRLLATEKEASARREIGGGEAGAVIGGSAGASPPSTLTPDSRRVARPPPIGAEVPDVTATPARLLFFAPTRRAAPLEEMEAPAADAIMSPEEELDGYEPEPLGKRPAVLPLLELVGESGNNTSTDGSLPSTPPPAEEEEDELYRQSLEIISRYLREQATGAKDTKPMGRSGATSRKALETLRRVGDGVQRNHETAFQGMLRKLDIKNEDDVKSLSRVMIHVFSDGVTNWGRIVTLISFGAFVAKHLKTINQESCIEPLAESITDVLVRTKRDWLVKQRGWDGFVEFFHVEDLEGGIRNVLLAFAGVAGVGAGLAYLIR

On to `Cc1ncccc1-c1nccc(COc2ccccc2CC(Oc2ncnc3sc(-c4ccc(F)cc4)c(-c4ccc(OCCN5CCN(C)CC5)c(Cl)c4C)c23)C(=O)O)n1` [Example 116, (2R)-2-{[(5Sa)-5-{3-chloro-2-methyl-4-[2-(4-methylpiperazin-1-yl)ethoxy]phenyl}-6-(4-fluorophenyl)thieno[2,3-d]pyrimidin-4-yl]oxy}-3-(2-{[2-(2-methylpyridin-3-yl)pyrimidin-4-yl]methoxy}phenyl)propanoic acid], for which the 50% inhibitory concentration (IC50) in test [1] was 2.9e-09 M; in test [2], 0.007 µM.
In the same order, the values of `Cc1c(-c2c(-c3ccc(F)cc3)sc3ncnc(OC(Cc4ccccc4OCc4ccnc(-c5ccnc(Cl)c5)n4)C(=O)O)c23)ccc(OCCN2CCN(C)CC2)c1Cl` [Example 119, (2R)-2-{[(5Sa)-5-{3-chloro-2-methyl-4-[2-(4-methylpiperazin-1-yl)ethoxy]phenyl}-6-(4-fluorophenyl)thieno[2,3-d]pyrimidin-4-yl]oxy}-3-(2-{[2-(2-chloropyridin-4-yl)pyrimidin-4-yl]methoxy}phenyl)propanoic acid] are 4.8e-09 M and 0.02 µM.
Taken in the same sequence, the figures for `Cc1sccc1-c1nccc(COc2ccccc2CC(Oc2ncnc3sc(-c4ccc(F)cc4)c(-c4ccc(OCCN5CCN(C)CC5)c(Cl)c4C)c23)C(=O)O)n1` [Example 121, (2R)-2-{[(5Sa)-5-{3-chloro-2-methyl-4-[2-(4-methylpiperazin-1-yl)ethoxy]phenyl}-6-(4-fluorophenyl)thieno[2,3-d]pyrimidin-4-yl]oxy}-3-(2-{[2-(2-methylthiophen-3-yl)pyrimidin-4-yl]methoxy}phenyl)propanoic acid] were 5.6e-09 M and 0.015 µM.
In the same order, the values of `Cc1cncc(-c2nccc(COc3ccccc3CC(Oc3ncnc4sc(-c5ccc(F)cc5)c(-c5ccc(OCCN6CCN(C)CC6)c(Cl)c5C)c34)C(=O)O)n2)c1` [Example 122, (2R)-2-{[(5Sa)-5-{3-chloro-2-methyl-4-[2-(4-methylpiperazin-1-yl)ethoxy]phenyl}-6-(4-fluorophenyl)thieno[2,3-d]pyrimidin-4-yl]oxy}-3-(2-{[2-(5-methylpyridin-3-yl)pyrimidin-4-yl]methoxy}phenyl)propanoic acid] are 3.8e-09 M and 0.01 µM.
In the case of `Cc1cscc1-c1nccc(COc2ccccc2CC(Oc2ncnc3sc(-c4ccc(F)cc4)c(-c4ccc(OCCN5CCN(C)CC5)c(Cl)c4C)c23)C(=O)O)n1` [Example 124, (2R)-2-{[(5Sa)-5-{3-chloro-2-methyl-4-[2-(4-methylpiperazin-1-yl)ethoxy]phenyl}-6-(4-fluorophenyl)thieno[2,3-d]pyrimidin-4-yl]oxy}-3-(2-{[2-(4-methylthiophen-3-yl)pyrimidin-4-yl]methoxy}phenyl)propanoic acid], the results for the IC50 in test [1] and in test [2] were 4.3e-09 M and 0.024 µM, respectively.
With `Cc1c(-c2c(-c3ccc(F)cc3)sc3ncnc(OC(Cc4ccccc4OCc4ccn[nH]4)C(=O)O)c23)ccc(OCCN2CCN(C)CC2)c1Cl` [Example 125, (2R)-2-{[(5Sa)-5-{3-chloro-2-methyl-4-[2-(4-methylpiperazin-1-yl)ethoxy]phenyl}-6-(4-fluorophenyl)thieno[2,3-d]pyrimidin-4-yl]oxy}-3-[2-(1H-pyrazol-5-ylmethoxy)phenyl]propanoic acid], the half-inhibitory concentration (IC50) in test [1] came out at 7.3e-09 M; in test [2] it was 0.354 µM.
Taken in the same sequence, the figures for `Cc1c(-c2c(-c3ccc(F)cc3)sc3ncnc(OC(Cc4ccccc4OCC4CCCO4)C(=O)O)c23)ccc(OCCN(C)C)c1Cl` [Example 126, (2R)-2-{[(5Sa)-5-{3-chloro-4-[2-(dimethylamino)ethoxy]-2-methylphenyl}-6-(4-fluorophenyl)thieno[2,3-d]pyrimidin-4-yl]oxy}-3-{2-[(2R)-tetrahydrofuran-2-ylmethoxy]phenyl}propanoic acid] were 1.4e-08 M and 0.7 µM.
In the same order, the values of `Cc1c(-c2c(-c3ccc(F)cc3)sc3ncnc(OC(Cc4ccccc4OCC(F)(F)F)C(=O)O)c23)ccc(OCCN(C)C)c1Cl` [Example 127, (2R)-2-{[(5Sa)-5-{3-chloro-4-[2-(dimethylamino)ethoxy]-2-methylphenyl}-6-(4-fluorophenyl)thieno[2,3-d]pyrimidin-4-yl]oxy}-3-[2-(2,2,2-trifluoroethoxy)phenyl]propanoic acid] are 2e-08 M and 0.558 µM.
Consider `Cc1c(-c2c(-c3ccc(F)cc3)sc3ncnc(OC(Cc4ccccc4OCc4ccnc(-c5ccncc5)n4)C(=O)O)c23)ccc(OCCN(C)C)c1Cl` [Example 128, (2R)-2-{[(5Sa)-5-{3-chloro-4-[2-(dimethylamino)ethoxy]-2-methylphenyl}-6-(4-fluorophenyl)thieno[2,3-d]pyrimidin-4-yl]oxy}-3-(2-{[2-(pyridin-4-yl)pyrimidin-4-yl]methoxy}phenyl)propanoic acid], for which the values for the half-inhibitory concentration (IC50) in test [1] and in test [2] were 4e-09 M and 0.018 µM, respectively.
Taken in the same sequence, the figures for `Cc1c(-c2c(-c3ccc(F)cc3)sc3ncnc(OC(Cc4ccccc4OCc4ccnc(N5CCOCC5)n4)C(=O)O)c23)ccc(OCCN(C)C)c1Cl` [Example 129, (2R)-2-{[(5Sa)-5-{3-chloro-4-[2-(dimethylamino)ethoxy]-2-methylphenyl}-6-(4-fluorophenyl)thieno[2,3-d]pyrimidin-4-yl]oxy}-3-(2-{[2-(morpholin-4-yl)pyrimidin-4-yl]methoxy}phenyl)propanoic acid] were 2.2e-09 M and 0.069 µM.
On to `CCOc1nccc(COc2ccccc2CC(Oc2ncnc3sc(-c4ccc(F)cc4)c(-c4ccc(OCCN(C)C)c(Cl)c4C)c23)C(=O)O)n1` [Example 130, (2R)-2-{[(5Sa)-5-{3-chloro-4-[2-(dimethylamino)ethoxy]-2-methylphenyl}-6-(4-fluorophenyl)thieno[2,3-d]pyrimidin-4-yl]oxy}-3-{2-[(2-ethoxypyrimidin-4-yl)methoxy]phenyl}propanoic acid], for which the IC50 in test [1] was determined as 3.4e-09 M; in test [2] it was 0.065 µM.
Take `Cc1c(-c2c(-c3ccc(F)cc3)sc3ncnc(OC(Cc4ccccc4OCc4ccnc(OCC(F)(F)F)n4)C(=O)O)c23)ccc(OCCN(C)C)c1Cl` [Example 131, (2R)-2-{[(5Sa)-5-{3-chloro-4-[2-(dimethylamino)ethoxy]-2-methylphenyl}-6-(4-fluorophenyl)thieno[2,3-d]pyrimidin-4-yl]oxy}-3-(2-{[2-(2,2,2-trifluoroethoxy)pyrimidin-4-yl]methoxy}phenyl)propanoic acid]: the IC50 came to 7.9e-09 M in test [1] and 0.039 µM in test [2].
For the compound `Cc1c(-c2c(-c3ccc(F)cc3)sc3ncnc(OC(Cc4ccccc4OCc4ccnn4CC(F)(F)F)C(=O)O)c23)ccc(OCCN(C)C)c1Cl` [Example 132, (2R)-2-{[(5Sa)-5-{3-chloro-4-[2-(dimethylamino)ethoxy]-2-methylphenyl}-6-(4-fluorophenyl)thieno[2,3-d]pyrimidin-4-yl]oxy}-3-(2-{[1-(2,2,2-trifluoroethyl)-1H-pyrazol-5-yl]methoxy}phenyl)propanoic acid], the IC50 in test [1] is 4.8e-09 M; in test [2], 0.102 µM.
In the same order, the values of `CCCCn1nccc1COc1ccccc1CC(Oc1ncnc2sc(-c3ccc(F)cc3)c(-c3ccc(OCCN(C)C)c(Cl)c3C)c12)C(=O)O` [Example 133, (2R)-3-{2-[(1-butyl-1H-pyrazol-5-yl)methoxy]phenyl}-2-{[(5Sa)-5-{3-chloro-4-[2-(dimethylamino)ethoxy]-2-methylphenyl}-6-(4-fluorophenyl)thieno[2,3-d]pyrimidin-4-yl]oxy}propanoic acid] are 3.4e-09 M and 0.099 µM.

The values above are taken from patent US9670227B2, “Thienopyrimidine derivatives, a process for their preparation and pharmaceutical compositions containing them” (LES LABORATOIRES SERVIER, priority 2013, dated 2017).
